Test results reported in ChEMBL document CHEMBL1121631, “Quantitative structure-activity relationships by distance geometry: systematic analysis of dihydrofolate reductase inhibitors” (J Med Chem, 1980).

What follows are compounds tested on Dihydrofolate reductase (Enterococcus faecium).
In the case of `Nc1nc(O)c2cc(S(=O)(=O)c3ccc(Cl)c(Cl)c3)ccc2n1`, the Delta G is reported as -8.2 kcal.
`Nc1nc(N)c2c(Sc3ccc4ccccc4c3)cccc2n1` gave a Delta G of -10.9 kcal.
`Nc1nc(S)c2cc(S(=O)(=O)c3ccc4ccccc4c3)ccc2n1` gave a Delta G of -8 kcal.
With `Nc1nc(N)c2c(/C=C/c3ccc4ccccc4c3)cccc2n1` the Delta G was -10.7 kcal.
Compound `Nc1nc(O)c2c(Sc3ccc4ccccc4c3)cccc2n1` has a Delta G of -7.4 kcal.
`CCOC(=O)c1ccc(CNc2ccc3nc(N)nc(O)c3c2)cc1` showed a Delta G of -8.6 kcal.
For `CCOC(=O)c1ccc(NCc2ccc3nc(N)nc(N)c3c2)cc1`, the Delta G was -11.4 kcal.
With `O=c1[nH]c(=O)c2cc(Sc3ccc4ccccc4c3)ccc2[nH]1` the Delta G was -6.9 kcal.
`Nc1nc(N)c2c(Sc3ccc(Cl)c(Cl)c3)cccc2n1` was tested, and the Delta G was -9.9 kcal.
`CCOC(=O)c1ccc(NCc2ccc3nc(N)nc(O)c3c2)cc1` gave a Delta G of -10.6 kcal.
`CCOC(=O)c1ccc(CNc2ccc3nc(N)nc(N)c3c2)cc1` gave a Delta G of -11 kcal.
Work on `Nc1nc(N)c2c(Cl)c(CNc3ccc(C(=O)O)cc3)ccc2n1` yielded a Delta G of -12.3 kcal.
In the case of `Nc1nc(O)c2c(S(=O)(=O)c3ccc4ccccc4c3)cccc2n1`, the Delta G is reported as -9 kcal.
`Nc1nc(N)c2c(S(=O)(=O)c3ccc(Cl)c(Cl)c3)cccc2n1` showed a Delta G of -9 kcal.
Compound `CCCCOC(=O)c1ccc(NCc2ccc3nc(N)nc(N)c3c2Cl)cc1` has a Delta G of -11.4 kcal.
In the case of `Nc1nc(N)c2c(S(=O)(=O)c3ccc4ccccc4c3)cccc2n1`, the Delta G is reported as -6.5 kcal.
`CCCCOC(=O)c1ccc(NCc2ccc3nc(N)nc(N)c3c2C)cc1` showed a Delta G of -12.1 kcal.
`Nc1nc(N)c2cc([S+]([O-])c3ccc4ccccc4c3)ccc2n1` (stereo not drawn) gave a Delta G of -12.8 kcal.
With `Nc1nc(N)c2c(/C=C\c3ccc4ccccc4c3)cccc2n1` the Delta G was -11.1 kcal.
With `CCCCOC(=O)c1ccc(NCc2ccc3nc(N)nc(N)c3c2)cc1` the Delta G was -11.2 kcal.
In the case of `Nc1nc(N)c2c(CSc3ccc(Cl)cc3)cccc2n1`, the Delta G is reported as -10.9 kcal.
`Sc1nc(S)c2cc(Sc3ccc4ccccc4c3)ccc2n1` was tested, and the Delta G was -6 kcal.
For `Oc1nc(S)nc2ccc(Sc3ccc4ccccc4c3)cc12`, the Delta G was -6.2 kcal.
Compound `Nc1nc(N)c2cc(Sc3ccc(Cl)c(Cl)c3)ccc2n1` has a Delta G of -12.2 kcal.
In the case of `Nc1nc(N)c2cc(S(=O)(=O)c3ccc4ccccc4c3)ccc2n1`, the Delta G is reported as -12.4 kcal.
Compound `Nc1nc(O)c2cc(Sc3ccc4ccccc4c3)ccc2n1` has a Delta G of -10.2 kcal.
With `Nc1nc(O)nc2ccc(Sc3ccc4ccccc4c3)cc12` the Delta G was -6.9 kcal.
Work on `Nc1nc(N)c2cc(S(=O)(=O)c3ccc(Cl)c(Cl)c3)ccc2n1` yielded a Delta G of -13.4 kcal.
Compound `CCOC(=O)c1ccc(NCc2ccc3nc(N)nc(N)c3c2Cl)cc1` has a Delta G of -12.8 kcal.
With `Nc1ncnc2ccc([S+]([O-])c3ccc4ccccc4c3)cc12` (stereo not drawn) the Delta G was -7.2 kcal.
With `Cc1c(CNc2ccc(C(=O)O)cc2)ccc2nc(N)nc(N)c12` the Delta G was -11.8 kcal.
In the case of `Nc1nc(O)c2cc(CNc3ccc(C(=O)O)cc3)ccc2n1`, the Delta G is reported as -8.8 kcal.
For `Nc1nc(S)c2cc(Sc3ccc4ccccc4c3)ccc2n1`, the Delta G was -9.3 kcal.
In the case of `Nc1nc(N)c2c([S+]([O-])c3ccc4ccccc4c3)cccc2n1` (stereo not drawn), the Delta G is reported as -6.9 kcal.
With `CCOC(=O)c1ccc(CNc2ccc3nc(N)nc(N)c3c2Cl)cc1` the Delta G was -12.2 kcal.
`Nc1nc(N)c2cc(Sc3cccc(C(F)(F)F)c3)ccc2n1` showed a Delta G of -13.4 kcal.
With `O=c1[nH]c(=S)c2cc(Sc3ccc4ccccc4c3)ccc2[nH]1` the Delta G was -6.9 kcal.
Compound `Nc1nc(O)c2cc(Sc3ccc(Cl)c(Cl)c3)ccc2n1` has a Delta G of -9.1 kcal.
`Nc1nc(S)nc2ccc(Sc3ccc4ccccc4c3)cc12` showed a Delta G of -7.4 kcal.
`CCOC(=O)c1ccc(CNc2ccc3nc(N)nc(O)c3c2Cl)cc1` was tested, and the Delta G was -9.3 kcal.
`Nc1nc(N)c2c(CCc3ccc4ccccc4c3)cccc2n1` showed a Delta G of -11.9 kcal.
`Nc1nc(N)c2cc(CNc3ccc(C(=O)O)cc3)ccc2n1` was tested, and the Delta G was -13 kcal.
In the case of `CCOC(=O)c1ccc(NCc2ccc3nc(N)nc(N)c3c2C)cc1`, the Delta G is reported as -12.3 kcal.
`Nc1nc(O)c2cc(S(=O)(=O)c3ccc4ccccc4c3)ccc2n1` was tested, and the Delta G was -9.6 kcal.
Work on `Nc1nc(O)c2cc(NCc3ccc(C(=O)O)cc3)ccc2n1` yielded a Delta G of -7.2 kcal.
`CCOC(=O)c1ccc(CNc2ccc3nc(N)nc(N)c3c2C)cc1` gave a Delta G of -13.1 kcal.
In the case of `Nc1ncnc2ccc(S(=O)(=O)c3ccc4ccccc4c3)cc12`, the Delta G is reported as -5.8 kcal.
Work on `Cc1c(CNc2ccc(C(=O)NC(CC(=O)O)C(=O)O)cc2)ccc2nc(N)nc(N)c12` (stereo not drawn) yielded a Delta G of -12.7 kcal.
In the case of `Nc1ncnc2ccc(Sc3ccc4ccccc4c3)cc12`, the Delta G is reported as -6.5 kcal.
Compound `Nc1nc(O)c2cc([S+]([O-])c3ccc4ccccc4c3)ccc2n1` (stereo not drawn) has a Delta G of -8.2 kcal.
`Cc1c(NCc2ccc(C(=O)O)cc2)ccc2nc(N)nc(O)c12` was tested, and the Delta G was -6.5 kcal.
In the case of `CCOC(=O)c1ccc(CNc2ccc3nc(N)nc(O)c3c2C)cc1`, the Delta G is reported as -7.1 kcal.
Work on `Nc1nc(N)c2c([S+]([O-])c3ccc(Cl)c(Cl)c3)cccc2n1` (stereo not drawn) yielded a Delta G of -7.3 kcal.
